Consider 21 compounds from PubChem BioAssay AID256 (DTP/NCI, 2004).

The test system of this test is CD2F1 mice, L1210 leukemia ip, survival T/C. Description: NCI In Vivo Anticancer Drug Screen. Data for tumor model L1210 Leukemia (intraperitoneal) in CD2F1 (CDF1) mice. The following applies: higher = longer survival. The gist of the method:
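Activity against a transplanted murine tumor was judged by comparing the compound group with a vehicle group. The outcome in the treated animals was divided by that in the controls.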

The mark [1] stands for this setting: endpoint: mean survival time, dose: 100.0 mg/kg/injection, schedule: Q01DX009 (ip), vehicle: saline with Tween-80.
Setting [2] is: endpoint: mean survival time, dose: 200.0 mg/kg/injection, schedule: Q01DX009 (ip), vehicle: saline with Tween-80.
Where [3] appears, read: endpoint: mean survival time, dose: 100.0 mg/kg/injection, schedule: Q01DX009 (ip), vehicle: saline.
Setting [4] is: endpoint: mean survival time, dose: 200.0 mg/kg/injection, schedule: Q01DX009 (ip), vehicle: saline.
[5] abbreviates: endpoint: mean survival time, dose: 400.0 mg/kg/injection, schedule: Q01DX009 (ip), vehicle: saline.

Several values for one entry are separate records, joined by “and”; a condition that tells them apart may be missing. Identical values can stand only once. Inconclusive results and toxic doses are left out.

On to `NC(=S)Nc1ccc([N+](=O)[O-])cc1`, for which the T/C runs as follows: (endpoint: mean survival time, dose: 25.0 mg/kg/injection, schedule: Q04DX003 (ip), vehicle: other) 96 % of control; (endpoint: mean survival time, dose: 50.0 mg/kg/injection, schedule: Q04DX003 (ip), vehicle: other) 91 % of control; (endpoint: mean survival time, dose: 100.0 mg/kg/injection, schedule: Q04DX003 (ip), vehicle: other) 88 % of control and 95 % of control.
Regarding `COC(C(=O)C(O)C(C)O)C1Cc2cc3cc(OC4CC(OC5CC(O)C(O)C(C)O5)C(O)C(C)O4)c(C)c(O)c3c(O)c2C(=O)C1OC1CC(OC2CC(O)C(OC3CC(C)(O)C(O)C(C)O3)C(C)O2)C(O)C(C)O1` (centres undefined), the T/C (endpoint: mean survival time, dose: 0.13 mg/kg/injection, schedule: Q01DX009 (ip), vehicle: saline) was 101 % of control; the T/C (endpoint: mean survival time, dose: 0.25 mg/kg/injection, schedule: Q01DX009 (ip), vehicle: saline) is 97 % of control; the T/C (endpoint: mean survival time, dose: 0.5 mg/kg/injection, schedule: Q01DX009 (ip), vehicle: saline) was 101 % of control; the T/C (endpoint: mean survival time, dose: 1.0 mg/kg/injection, schedule: Q01DX009 (ip), vehicle: saline) is 95 % of control.
`Cn1c(=O)c(Br)cc2ccccc21`: the T/C (endpoint: mean survival time, dose: 100.0 mg/kg/injection, schedule: Q01DX001 (ip), vehicle: saline) was 102 % of control; the T/C (endpoint: mean survival time, dose: 200.0 mg/kg/injection, schedule: Q01DX001 (ip), vehicle: saline) was 96 % of control; the T/C (endpoint: mean survival time, dose: 400.0 mg/kg/injection, schedule: Q01DX001 (ip), vehicle: saline) is 96 % of control.
Regarding `OCc1cc(Cl)cc(Cl)c1OCc1ccccc1`, the T/C by setting is: (endpoint: mean survival time, dose: 100.0 mg/kg/injection, schedule: Q04DX002 (ip), vehicle: other) 101 % of control; (endpoint: mean survival time, dose: 200.0 mg/kg/injection, schedule: Q04DX002 (ip), vehicle: other) 101 % of control; (endpoint: mean survival time, dose: 400.0 mg/kg/injection, schedule: Q04DX002 (ip), vehicle: other) 101 % of control.
Turning to `[Co].[N-]=C=S.[N-]=C=S.[N-]=C=S.[N-]=C=S`, the T/C by setting is: (endpoint: mean survival time, dose: 25.0 mg/kg/injection, schedule: Q04DX002 (ip), vehicle: saline) 104 % of control; (endpoint: mean survival time, dose: 50.0 mg/kg/injection, schedule: Q04DX002 (ip), vehicle: saline) 104 % of control; (endpoint: mean survival time, dose: 100.0 mg/kg/injection, schedule: Q04DX002 (ip), vehicle: saline) 117 % of control and 112 % of control.
In the case of `CN(C)CCCN(C)CCCN(C)C`, the T/C (endpoint: mean survival time, dose: 75.0 mg/kg/injection, schedule: Q01DX001 (ip), vehicle: saline) was 104 % of control and the T/C (endpoint: mean survival time, dose: 150.0 mg/kg/injection, schedule: Q01DX001 (ip), vehicle: saline) was 103 % of control.
In the case of `CC(=O)Nc1ccc(/C=C2\N=C(c3cccc(Cl)c3)OC2=O)cc1`, the T/C by setting is: (endpoint: mean survival time, dose: 100.0 mg/kg/injection, schedule: Q04DX002 (ip), vehicle: saline with Tween-80) 90 % of control; (endpoint: mean survival time, dose: 200.0 mg/kg/injection, schedule: Q04DX002 (ip), vehicle: saline with Tween-80) 98 % of control; (endpoint: mean survival time, dose: 400.0 mg/kg/injection, schedule: Q04DX002 (ip), vehicle: saline with Tween-80) 105 % of control.
`CCOP(=O)(OCC)C1=C(CC)CC1`: where the note is “endpoint: mean survival time, dose: 75.0 mg/kg/injection, schedule: Q01DX001 (ip), vehicle: other”, the T/C is 98 % of control.
Consider `COc1ccc2c(c1)CCC1C2CCC2(C)C(=O)OC(=O)C12` (centres undefined), for which the T/C is, setting by setting: (endpoint: mean survival time, dose: 100.0 mg/kg/injection, schedule: Q04DX003 (sc), vehicle: steriod suspending solution) 101 % of control; (endpoint: mean survival time, dose: 200.0 mg/kg/injection, schedule: Q04DX003 (sc), vehicle: steriod suspending solution) 95 % of control; (endpoint: mean survival time, dose: 400.0 mg/kg/injection, schedule: Q04DX003 (sc), vehicle: steriod suspending solution) 98 % of control.
On to `CCCN(C)C(=O)N(CCCl)N=O`, for which the T/C runs as follows: (endpoint: mean survival time, dose: 39.0 mg/kg/injection, schedule: Q01DX001 (ip), vehicle: other) 306 % of control; (endpoint: mean survival time, dose: 62.5 mg/kg/injection, schedule: Q01DX001 (ip), vehicle: other) 197 % of control; (endpoint: mean survival time, dose: 78.0 mg/kg/injection, schedule: Q01DX001 (ip), vehicle: other) 448 % of control; (endpoint: mean survival time, dose: 125.0 mg/kg/injection, schedule: Q01DX001 (ip), vehicle: other) 320 % of control; (endpoint: mean survival time, dose: 250.0 mg/kg/injection, schedule: Q01DX001 (ip), vehicle: other) 102 % of control.
Take `[Cl][Pt+2][Cl].[NH-]CC1(C[NH-])CCCCC1`: where the note is “endpoint: mean survival time, dose: 25.0 mg/kg/injection, schedule: Q04DX003 (ip), vehicle: saline”, the T/C is 95 % of control.
In the case of `C=C1C(=O)OC2CC1C(OC(C)=O)CC1(C)OC1CCC1(C)OC1CCC2(C)O` (centres undefined), the T/C is 102 % of control (endpoint: mean survival time, dose: 6.25 mg/kg/injection, schedule: Q01DX009 (ip), vehicle: Klucel (hydroxypropylcellulose) (HPC)); 107 % of control (endpoint: mean survival time, dose: 12.5 mg/kg/injection, schedule: Q01DX009 (ip), vehicle: Klucel (hydroxypropylcellulose) (HPC)); 105 % of control (endpoint: mean survival time, dose: 25.0 mg/kg/injection, schedule: Q01DX009 (ip), vehicle: Klucel (hydroxypropylcellulose) (HPC)).
For the compound `CCCCOC(=O)c1ccccn1`, the T/C is 101 % of control (endpoint: mean survival time, dose: 50.0 mg/kg/injection, schedule: Q01DX009 (ip), vehicle: saline with Tween-80); 95 % of control under setting [1]; 98 % of control under setting [2].
Regarding `O=c1nc(NCC23CC4CC(CC(C4)C2)C3)ccn1C1OC(CO)C(O)C1O` (centres undefined), the T/C runs as follows: (endpoint: median survival time, dose: 12.5 mg/kg/injection, schedule: Q01DX005 (ip), vehicle: distilled water + Tween-80) 100 % of control; (endpoint: median survival time, dose: 25.0 mg/kg/injection, schedule: Q01DX005 (ip), vehicle: distilled water + Tween-80) 101 % of control; (endpoint: median survival time, dose: 50.0 mg/kg/injection, schedule: Q01DX005 (ip), vehicle: distilled water + Tween-80) 101 % of control; (endpoint: median survival time, dose: 100.0 mg/kg/injection, schedule: Q01DX005 (ip), vehicle: distilled water + Tween-80) 94 % of control; (endpoint: median survival time, dose: 200.0 mg/kg/injection, schedule: Q01DX005 (ip), vehicle: distilled water + Tween-80) 91 % of control.
Turning to `O=P(O)(O)OCCCl`, the T/C was 94 % of control under setting [3]; 100 % of control (endpoint: mean survival time, dose: 100.0 mg/kg/injection, schedule: Q04DX003 (ip), vehicle: saline); 96 % of control under setting [4]; 94 % of control (endpoint: mean survival time, dose: 200.0 mg/kg/injection, schedule: Q04DX003 (ip), vehicle: saline); 94 % of control under setting [5]; 94 % of control (endpoint: mean survival time, dose: 400.0 mg/kg/injection, schedule: Q04DX003 (ip), vehicle: saline).
For `CC(=O)N(CC(=O)O)c1ccccc1`, the T/C under setting [1] is 98 % of control; the T/C under setting [2] was 96 % of control; the T/C (endpoint: mean survival time, dose: 400.0 mg/kg/injection, schedule: Q01DX009 (ip), vehicle: saline with Tween-80) was 96 % of control.
`CCCCCC(CN(C)C)C(=O)/C=C/c1ccc(Cl)c(Cl)c1` (centres undefined): the T/C (endpoint: mean survival time, dose: 6.25 mg/kg/injection, schedule: Q01DX009 (ip), vehicle: acetone) was 92 % of control; the T/C (endpoint: mean survival time, dose: 12.5 mg/kg/injection, schedule: Q01DX009 (ip), vehicle: acetone) is 94 % of control; the T/C (endpoint: mean survival time, dose: 25.0 mg/kg/injection, schedule: Q01DX009 (ip), vehicle: acetone) is 97 % of control.
Turning to `O=C(CCCCCC(=O)OCCBr)OCCBr`, the T/C (endpoint: mean survival time, dose: 50.0 mg/kg/injection, schedule: Q04DX003 (ip), vehicle: saline sonified) is 102 % of control; the T/C (endpoint: mean survival time, dose: 100.0 mg/kg/injection, schedule: Q04DX003 (ip), vehicle: saline sonified) was 100 % of control; the T/C (endpoint: mean survival time, dose: 200.0 mg/kg/injection, schedule: Q04DX003 (ip), vehicle: saline sonified) is 93 % of control.
As for `CCCCCCC[CH2][Sn]1([CH2]CCCCCCC)[O]C2C(CO)OC(n3ccc(=O)[nH]c3=O)C2[O]1` (centres undefined), the T/C was 100 % of control (endpoint: mean survival time, dose: 12.5 mg/kg/injection, schedule: Q01DX005 (ip), vehicle: other); 90 % of control (endpoint: mean survival time, dose: 25.0 mg/kg/injection, schedule: Q01DX005 (ip), vehicle: other); 91 % of control (endpoint: mean survival time, dose: 50.0 mg/kg/injection, schedule: Q01DX005 (ip), vehicle: other); 94 % of control (endpoint: mean survival time, dose: 100.0 mg/kg/injection, schedule: Q01DX005 (ip), vehicle: other); 91 % of control (endpoint: mean survival time, dose: 200.0 mg/kg/injection, schedule: Q01DX005 (ip), vehicle: other).
Turning to `c1ccc2c3c(c4c(c2c1)CN(C1CCCCC1)CO4)OCN(C1CCCCC1)C3`, the T/C (endpoint: median survival time, dose: 0.19 mg/kg/injection, schedule: Q01DX009 (ip), vehicle: other) is 101 % of control; the T/C (endpoint: median survival time, dose: 0.38 mg/kg/injection, schedule: Q01DX009 (ip), vehicle: other) is 101 % of control; the T/C (endpoint: median survival time, dose: 0.75 mg/kg/injection, schedule: Q01DX009 (ip), vehicle: other) is 98 % of control; the T/C (endpoint: median survival time, dose: 1.5 mg/kg/injection, schedule: Q01DX009 (ip), vehicle: other) was 98 % of control.
As to `c1ccc(Cc2ccccn2)nc1`, the T/C under setting [3] was 110 % of control, the T/C under setting [4] was 101 % of control and the T/C under setting [5] was 90 % of control.
